Data from patent publication US20090022806A1, “Nanoparticle and polymer formulations for thyroid hormone analogs, antagonists and formulations and uses thereof” (priority 2006, published 2009).
Several values for one entry are separate records, joined by “and”; a condition that tells them apart may be missing. Equal values may be shown once. Entries after “also recorded” stand apart in the source; their conditions may differ.

Columns and labels:
[1] = system: citrated human whole blood; assay: Thromboelastography (TEG) clot dynamics; settings: 25 ng TF + 2.25 mM Ca^+2 or 10 mM Ca^+2; n = 4
Description: Thromboelastography (TEG) has been used in various hospital settings since its development by Hartert in 1948. The principle of TEG is based on the measurement of the physical viscoelastic characteristics of blood clot. Clot formation was monitored at 37° C. in an oscillating plastic cylindrical cuvette (“cup”) and a coaxially suspended stationary piston (“pin”) with a 1 mm clearance between the surfaces, using a computerized Thrombelastograph (TEG Model 3000, Haemoscope, Skokie, Ill.). The cup oscillates in either direction every 4.5 seconds, with a 1 second mid-cycle stationary period; resulting in a frequency of 0.1 Hz and a maximal shear rate of 0.1 per second. The pin is suspended by a torsion wire that acts as a torque transducer. […] The torque experienced by the pin (relative to the cup's oscillation) is plotted as a function of time (FIG. 58).
TEG assesses coagulation by measuring various parameters such as the time latency for the initial initiation of the clot (R), the time to initiation of a fixed clot firmness (k) of about 20 mm amplitude, the kinetic of clot development as measured by the angle (α), and the maximum amplitude of the clot (MA). The parameter A measures the width of the tracing at any point of the MA. Amplitude A in mm is a function of clot strength or elasticity. The amplitude on the TEG tracing is a measure of the rigidity of the clot; the peak strength or the shear elastic modulus attained by the clot, G, is a function of clot rigidity and can be calculated from the maximal amplitude (MA) of the TEG tracing.
The following parameters were measured from the TEG tracing: • R, the reaction time (gelation time) represents the latent period before the establishment of a 3-dimensional fibrin gel network (with measurable rigidity of about 2 mm amplitude). • Maximum Amplitude (MA, in mm), is the peak rigidity manifested by the clot. • Shear elastic modulus or clot strength (G, dynes/cm^2) is defined by:
Blood was drawn from consenting volunteers under a protocol approved by the Human Investigations Committee of William Beaumont Hospital. Using the two syringe method, samples were drawn through a 21 gauge butterfly needle and the initial 3 ml blood was discarded.

[2] = system: phosphorylated ERK1/2 in ECV304 endothelial cells; assay: MAPK (ERK1/2) activation in ECV304 cells, nuclear pERK1/2 immunoblot; type: cell-based; settings: PD 98059 30 μmol/L or CGP41251 100 nmol/L for 30 minutes before 10^−7 M T4
Description: ECV304 endothelial cells were cultured in M199 medium with 0.25% hormone-depleted serum 13 for 2 days. […] Nuclear fractions were pre-pared from all samples by our method reported previously, the proteins separated by polyacrylamide gel electrophoresis, and transferred to membranes for immunoblotting with antibody to phosphorylated ERK 1/2.

[3] = system: chick chorioallantoic membrane (CAM); assay: Chick chorioallantoic membrane (CAM) assay of angiogenesis; type: in vivo; settings: for effect on angiogenesis produced by T4: PTU applied to filter disks (1 mmol/L)
Description: Chorioallantoic membrane (CAM) Model of Angiogenesis: In vivo Neovascularization was examined by methods described previously. 9-12 Ten-day-old chick embryos were purchased from SPAFAS (Preston, Conn.) and incubated at 37° C. with 55% relative humidity. A hypodermic needle was used to make a small hole in the shell concealing the air sac, and a second hole was made on the broad side of the egg, directly over an avascular portion of the embryonic membrane that was identified by candling. A false air sac was created beneath the second hole by the application of negative pressure at the first hole, causing the CAM to separate from the shell. A window approximately 1.0 cm 2 was cut in the shell over the dropped CAM with a small-crafts grinding wheel (Dremel, division of Emerson Electric Co.), allowing direct access to the underlying CAM. FGF2 (1 μg/mL) was used as a standard proangiogenic agent to induce new blood vessel branches on the CAM of 10-day-old embryos. Sterile disks of No. 1 filter paper (Whatman International) were pretreated with 3 mg/mL cortisone acetate and 1 mmol/L PTU and air dried under sterile conditions. Thyroid hormone, hormone analogues, FGF2 or control solvents, and inhibitors were then applied to the disks and the disks allowed to dry. The disks were then suspended in PBS and placed on growing CAMs. […] At 24 hours, the MAPK cascade inhibitor PD 98059 was also added to CAMs topically by means of the filter disks.
After incubation at 37° C. with 55% relative humidity for 3 days, the CAM tissue directly beneath each filter disk was resected from control and treated CAM samples. Tissues were washed 3× with PBS, placed in 35-mm Petri dishes (Nalge Nunc), and examined under an SV6 stereomicroscope (Zeiss) at ×50 magnification. Digital images of CAM sections exposed to filters were collected using a 3-charge-coupled device color video camera system (Toshiba) and analyzed with Image-Pro software (Media Cybernetics). The number of vessel branch points contained in a circular region equal to the area of each filter disk were counted. One image was counted in each CAM preparation, and findings from 8 to 10 CAM preparations were analyzed for each treatment condition (thyroid hormone or analogues, FGF2, FGF2 antibody, PD 98059). In addition, each experiment was performed 3 times. The resulting angiogenesis index is the mean±SEM of new branch points in each set of samples.
Ten-day-old chick embryos were purchased £tom SPAFAS (Preston, Conn.) and were incubated at 37° C. with 55% relative humidity. A hypodermic needle was used to make a small hole in the blunt end of the egg and a second hole was made on the broad side of the egg, directly over an avascular portion of the embryonic membrane. Mild suction was applied to the first hole to displace the air sac and drop the CAM away from the shell. Using a Dremel model craft drill (Dremel, Racine, Wis.), a approx. 1.0 cm^2 window was cut in the shell over the false air sac, allowing access to the CAM. Sterile disks of No. 1 filter paper (Whatman, Clifton, N.J.) were pretreated with 3 mg/ml cortisone acetate and 1 mMm propylthiouracil and air dried under sterile conditions. […] The disks were then suspended in PBS and placed on growing CAMS. After incubation for 3 days, the CAM beneath the filter disk was resected and rinsed with PBS. Each membrane was placed in a 35 mm Petri dish and examined under an SV6 stereo-microscope at 50× magnification. Digital images were captured and analyzed with Image-Pro software (Mediacybemetics). The number of vessel branch points contained in a circular region equal to the filter disk were counted. One image from each of 8-10 CAM preparations for each treatment condition was counted, and in addition each experiment was performed 3 times.
Ten-day-old chick embryos were purchased from SPAFAS (Preston, Conn.) and were incubated at 37° C. with 55% relative humidity. Chick CAM assays were performed as previously described.

[4] = system: Human dermal micro-vascular endothelial cells (HDMEC); assay: Three-dimensional human micro-vascular endothelial sprouting assay; type: cell-based
Description: In Vitro Three-Dimensional Sprout Angiogenesis of Human Dermal Micro-Vascular Endothelial Cells (HDMEC) Cultured on Micro-Carrier Beads Coated with Fibrin: Confluent HDMEC (passages 5-10) were mixed with gelatin-coated Cytodex-3 beads with a ratio of 40 cells per bead. Cells and beads (150-200 beads per well for 24-well plate) were suspended with 5 ml EBM+15% normal human serum, mixed gently every hour for first 4 hours, then left to culture in a CO2 incubator overnight. The next day, 10 ml of fresh EBM+5% HS were added, and the mixture was cultured for another 3 hours. Before experiments, the culture of EC-beads was checked; then 500 ul of PBS was added to a well of 24-well plate, and 100 ul of the EC-bead culture solution was added to the PBS. The number of beads was counted, and the concentration of EC/beads was calculated.
A fibrinogen solution (1 mg/ml) in EBM medium with or without angiogenesis factors or testing factors was prepared. For positive control, 50 ng/ml VEGF+25 ng/ml FGF2 was used. EC-beads were washed with EBM medium twice, and EC-beads were added to fibrinogen solution. The experiment was done in triplicate for each condition. The EC-beads were mixed gently in fibrinogen solution, and 2.5 ul human thrombin (0.05 U/ul) was added in 1 ml fibrinogen solution; 300 ul was immediately transferred to each well of a 24-well plate. The fibrinogen solution polymerizes in 5-10 minutes; after 20 minutes, we added EBM+20% normal human serum+10 ug/ml aprotinin. The plate was incubated in a CO2 incubator. It takes about 24-48 hours for HDMEC to invade fibrin gel and form tubes.
A micro-carrier in vitro angiogenesis assay previously designed to investigate bovine pulmonary artery endothelial cell angiogenic behavior in bovine fibrin gels [Nehls and Drenckhahn, 1995a, b] was modified for the study of human microvascular endothelial cell angiogenesis in three-dimensional ECM environments (FIGS. 1 and 2). Briefly, human fibrinogen, isolated as previously described [Feng et al, 1999], was dissolved in M199 medium at a concentration of 1 mg/ml (pH 7.4) and sterilized by filtering through a 0.22 micron filter. An isotonic 1.5 mg/ml collagen solution was prepared by mixing sterile Vitrogen 100 in 5×M199 medium and distilled water. The pH was adjusted to 7.4 by 1N NaOH. In certain experiments, growth factors and ECM proteins (such as VEGF, bFGF, PDGF-BB, serum, gelatin, and fibronectin) were added to the fibrinogen or collagen solutions. About 500 EC-beads were then added to the 1 mg/ml fibrinogen or 1.5 mg/ml collagen solutions. Subsequently, EC-beads-collagen or EC-beads-fibrinogen suspension (500 EC-beads/ml) was plated onto 24-well plates at 300 ul/well. EC-bead-collagen cultures were incubated at 37° C. to form gel. The gelling of EC-bead-fibrin cultures occurred in less than 5 minutes at room temperature after the addition of thrombin to a final concentration of 0.5 U/ml. After gelation, 1 ml of fresh assay medium (EBM supplemented with 20% normal human serum for HDMEC or EBM supplemented with 10% fetal bovine serum was added to each well. The angiogenic response was monitored visually and recorded by video image capture. Specifically, capillary sprout formation was observed and recorded with a Nikon Diaphot-TMD inverted microscope (Nikon Inc.; Melville, N.Y.), equipped with an incubator housing with a Nikon NP-2 thermostat and Sheldon #2004 carbon dioxide flow mixer. The microscope was directly interfaced to a video system consisting of a Dage-MTI CCD-72S video camera and Sony 12″ PVM-122 video monitor linked to a Macintosh G3 computer. The images were captured at various magnifications using Adobe Photoshop. The effect of angiogenic factors on sprout angiogenesis was quantified visually by determining the number and percent of EC-beads with capillary sprouts. One hundred beads (five to six random low power fields) in each of triplicate wells were counted for each experimental condition. All experiments were repeated at least three times. […]

HMVEC-d cells = assay: Microarray analysis (Affymetrix Human U133 Plus 2.0) of HMVEC-d cells; type: cell-based
Description: Microarray Analysis Ten micrograms of total RNA from HMVEC-d cells was amplified and biotin-labeled according to GeneChip Expression Analysis Technical Manual (Affymetrix, Santa Clara, Calif.). Fragmented cRNA was hybridized with human gene chip U133 PLUS 2 (Affymetrix); chips were washed and stained with streptavidin R-phycoerythrin (Molecular Probes, Eugene, Oreg.). The chips were scanned and the data were analyzed with Microarray Suite and Data Mining Tool (Affymetrix).
To further identify possible mechanisms of tetrac inhibition of VEGF-stimulated angiogenesis, microarray analysis was performed using the Human U133 Plus 2.0 array from Affymetrix. HDMEC cells were incubated with VEGF at 50 ng/ml for 24 hours with and without Tetrac (3 uM). […] As shown in FIGS. 49A-C, Angiopoietin-like 1 (ANGPTL-1, probe set ID # 231773) expression was increased 5.9 fold following VEGF treatment.

[5] = hormone 0.1 uM alone, pretreated FGF2 1.25 ng/ml + VEGF […], day 3
[6] = VEGF 50 ng/ml, 24 hours, vs untreated

For `[Ca+2].[Cl-].[Cl-]` [Ca^+2, Calcium Chloride], the “K” value [1] was 7.0 ± 0.7 min, the “MA (mm)” value [1] was 56.5 ± 2.2 mm and the “r” value [1] was 14.5 ± 2.5 min. For the same compound, the “α (angle)” value [1] was 47.3 ± 2.7 angle.

With `COc1cccc(-c2cc(=O)c3ccccc3o2)c1N` [PD 98059] the “inhibition of T4-induced ERK1/2 activation” value [2] was “inhibited; also recorded: blocked by both inhibitors”, the “inhibition of angiogenesis induced by FGF2 (1 μg/mL)” value ([3]; PD 98059) was “effectively blocked; also recorded: also inhibited” and the “inhibition of angiogenesis stimulated by T4 (0.1 μmol/L) and T3 (1 nmol/L) together” value ([3]; PD 98059 3 μmol/L) was “completely blocked; also recorded: fully inhibited”. The “block of the pro-angiogenesis effect of T4 or FGF2” value ([3]; PD 98059 at 0.8-8 μg) was “totally blocked” and the “inhibition of the pro-angiogenesis action of T3, T4 or T4-agarose” value ([4]; tetrac 0.1 μM, PD 98059, XT199) was “significantly (P<0.01) blocked”.

`CCCc1cc(=O)[nH]c(=S)[nH]1` [PTU, 6-N-propyl-2-thiouracil] was tested, and the “effect on angiogenesis produced by T4” value [3] was “no inhibitory effect” and the “effect on angiogenesis produced by T4” value ([3]; listed as Propylthiouracil) was “has no effect”.

`N[C@@H](Cc1cc(I)c(Oc2ccc(O)c(I)c2)c(I)c1)C(=O)O` [T3, 3,5,3′-triiodo-L-thyronine] was tested, and the stimulation of angiogenesis ([4]; 0.01-0.1 μM) was “significant (P<0.01) stimulation of angiogenesis”, the “Mean Tube Vessel Length (mm) ± SD” value ([4]; FGF2 25 ng + VEGF 50 ng, T3 20 ng, T4 23 ng, T4-agarose 23 ng, pre-treated with FGF2 1.25 ng/ml + VEGF […]) was 1.88 ± 0.21 mm and the “Mean number of Migrated cells ± SD” value [4, 5] was 188 ± 15. For the same compound, the “Mean vessel Length (mm) ± SD” value [4, 5] was 0.91 ± 0.04 mm.

In the case of `O=C(O)Cc1cc(I)c(Oc2ccc(O)c(I)c2)c(I)c1` [TRIAC, triiodothyroacetic acid], the “block of the pro-angiogenic effect of T4 or T4-agarose” value ([3]; CAM model) is reported as 100%.

With “FGF2: human recombinant FGF2, standard proangiogenic agent” the “fold increase in angiogenesis index” value ([3]; 1 μg of FGF2) was 2-3 fold, the “fold increase in blood vessel branch formation” value ([3]; FGF2 1 μg/ml on filter disk, vs PBS) was 2.2 fold and 2.4 fold and the “fold increase in angiogenesis” value ([3]; FIG. 4 experiment with FGF2 antibody, concentration not given, 3 experiments) was 2 fold.

With VEGF the ANGPTL-3 expression (HMVEC-d cells; VEGF 50 ng/ml, 24 hours) was “unaffected”, the “ANGPTL-1 expression, fold increase” value (HMVEC-d cells; [6]) was 5.9 fold and the “ANGPTL-2 expression, fold increase” value (HMVEC-d cells; [6]) was 1.6 fold. The “MMP-15 expression, fold increase” value (HMVEC-d cells; VEGF treatment) was 5.1 fold, the “MMP-19 expression, fold increase” value (HMVEC-d cells; VEGF treatment) was 2.9 fold and the MMP-24 expression (HMVEC-d cells; VEGF treatment) was “slightly decreased”.
